Test results: patent US5665769A, “Pharmaceutical composition for preventing and treating retinal diseases” (Senju Pharmaceuticals Co., Ltd., priority 1993, dated 1997)

Tested on: bovine retinal homogenate
Test: Ferrous chloride-induced peroxidation of bovine retinal homogenate in vitro, TBA value (Experiment 1 (A))
Format: biochemical
Details: 10^-4 M
Protocol: (A) In vitro experiment using a bovine retinal homogenate:
Effects of 2-O-octadecylascorbic acid on the peroxidation induced by adding ferrous chloride to a bovine retinal homogenate were examined.
(1) Retinae were removed from bovine eyeballs (1/2 eye). Physiological saline was added to the retinae to prepare bovine retinal homogenates.
(2) Ferrous chloride (0.5 mM, dissolved in distilled water) was added to each of the retinal homogenates obtained in the above. Further, 2-O-octadecylascorbic acid and α-tocopherol were added to the resulting homogenates to final concentrations of the reaction mixtures of 10^-4 M, respectively. Further, distilled water was added to each of the homogenates to adjust a total volume to 1 ml. 2-O-octadecylascorbic acid and α-tocopherol were dissolved and diluted with ethanol. Thus, the final concentrations of ethanol in all of the reaction mixtures were adjusted to 1%. Then, the mixtures were subjected to reaction at 37° C. for 1 hour.
(3) 0.35% thiobarbituric acid (hereinafter referred to as TBA) reagent (50% aqueous acetic acid solution)(1 ml) was added to the reaction mixtures or standard solutions of the retinal homogenates obtained in the above (2). The mixtures were subjected to reaction in boiling water at 100° C. for 1 hour. After water cooling, n-butanol (2 ml) was added, and the mixtures were shaken for 5 minutes and centrifuged at 3000 rpm for 10 minutes. Fluorescence intensities (excitation wave length: 515 nm, emission wave length: 553 nm) were determined for the n-butanol layer. Proteins were determined using Bio-Rad Protein Assay Kit (trade name).

SMILES: Cc1c(C)c2c(c(C)c1O)CCC(C)(CCCC(C)CCCC(C)CCCC(C)C)O2 (stereo not drawn) [α-Tocopherol, α-tocopherol, reference compound]
- Retina: TBA value (0.5 mM ferrous chloride, 37° C., 1 hour, mean ± S.D., n=3, p < 0.001 vs control): 2.38 ± 0.12 nM malondialdehyde/mg protein
- Inhibitory ratio (ferrous chloride control = 0, blank = 100, 60 min): 61.6%
